The nature of series [1]: physchem.
Series [2] in a line: Experimental LogD (partition coefficient). The following applies: for logD: not stated, Partition Coeff LogD.
Series [3] is described as follows: Lactate dehydrogenase (LDH) release assay. The class given is cell-based. The method in brief:
(§1)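 A p53 β-lactamase reporter HCT116 line, 8000 cells per well, is exposed to test compounds at 0.5% final DMSO and scored for LDH leakage.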

In series [4] the test system is HCT116 cells. The series is described as follows: Lactate dehydrogenase (LDH) release assay. The class given is cell-based. The method in brief: as §1
The nature of series [5]: Solubility assay (kinetic solubility, PBS pH 7). In kind it is physicochemical. The following applies: for solubility kinetic: pH 7, aqueous buffer, kinetic from dmso stock, read-out: Solubility. Summed up: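 Next, measure peak areas of sample and standard. Finally, multiply their ratio by the standard concentration to obtain solubility (µM).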
Series [6] in a line: physchem. The source holds these as a separate data set.
Series [7] in a line: Nanoclick permeability assay. The method in brief: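 Azido-peptide permeability was read as loss of NanoBRET signal (donor 450 nm, acceptor 610 nm) after adding NanoBret618-azide at 10 μM final.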
[8] abbreviates: 0% FBS 4Hr, read-out: LDH: Cytotoxicity assay EC50.

The results in this text go back to PMC10786919, “Design-rules for stapled peptides with in vivo activity and their application to Mdm2/X antagonists” (Nature Communications, 2024).

Converted amounts (≈) assume the structure as drawn. Read-outs that look alike come from different tables or passages of the source. Positions of bridges follow the written chain, without caps; N, C: chain ends. Non-standard residues stand in square brackets, D forms with d. Residues, ends and D or L forms follow the SMILES beside them. Lys(N3) = [N-]=[N+]=NCCCC[C@H](N)C(=O)O; R8 = C=CCCCCCC[C@@](C)(N)C(=O)O; Cba = N[C@@H](CC1CCC1)C(=O)O; S5 = C=CCCC[C@](C)(N)C(=O)O; βAla = NCCC(=O)O

`CC(=O)N[C@@H](CC(C)C)C(=O)N[C@H](C(=O)N[C@@H](Cc1ccccc1)C(=O)N[C@]1(C)CCCCCCC=CCCC[C@@](C)(C(=O)N[C@@H](CO)C(=O)N[C@@H](C)C(=O)N[C@@H](C)C(N)=O)NC(=O)[C@H](CC2CCC2)NC(=O)[C@H](CC(C)C)NC(=O)[C@H](CCC(N)=O)NC(=O)[C@H](Cc2c[nH]c3ccccc23)NC(=O)[C@H](C)NC(=O)[C@H](CCC(=O)O)NC1=O)[C@@H](C)O` [MP-363] (Ac-LTF[R8]EAWQL[Cba][S5]SAA-NH2; staple 4-11): the EPSA in series [1] stood at 195 A^2. The compound further gave a logD in series [2] of 2.85. This compound registered an EC50 in series [3] (LDH: Cytotoxicity assay: EC50) of over 50600 nM. For the same compound, the “LDH: Cytotoxicity assay: % Effect” value in series [4] was 4.97%.

With `CC(=O)N[C@@H](CC(C)C)C(=O)N[C@H](C(=O)N[C@@H](Cc1ccccc1)C(=O)N[C@]1(C)CCCCCCC=CCCC[C@@](C)(C(=O)N[C@@H](CO)C(=O)N[C@@H](C)C(=O)N[C@@H](C)C(N)=O)NC(=O)[C@H](CC2CCC2)NC(=O)[C@H](CCC(N)=O)NC(=O)[C@H](CCC(N)=O)NC(=O)[C@H](Cc2c[nH]c3ccccc23)NC(=O)[C@H](Cc2ccc(O)cc2)NC(=O)[C@H](CCC(=O)O)NC1=O)[C@@H](C)O` [MP-864] (Ac-LTF[R8]EYWQQ[Cba][S5]SAA-NH2; staple 4-11), the solubility kinetic in series [5] (pH 7, PBS) was 86.5 µM (≈ 156 µg/mL). In series [1], the EPSA worked out at 212 A^2. In series [2], this compound displayed a log distribution coefficient (logD) of 2.59. Also, the EC50 in series [3] (LDH: Cytotoxicity assay: EC50) is over 50600 nM.

For the compound `CC(=O)N[C@@H](CC(C)C)C(=O)N[C@H](C(=O)N[C@@H](Cc1ccccc1)C(=O)N[C@]1(C)CCCCCCC=CCCC[C@@](C)(C(=O)N[C@@H](CO)C(=O)N[C@@H](C)C(=O)N[C@@H](C)C(N)=O)NC(=O)[C@H](CC2CCC2)NC(=O)[C@H](C)NC(=O)[C@H](C)NC(=O)[C@H](Cc2c[nH]c3ccccc23)NC(=O)[C@H](Cc2ccc(O)cc2)NC(=O)[C@H](CCC(=O)O)NC1=O)[C@@H](C)O` [MP-865] (Ac-LTF[R8]EYWAA[Cba][S5]SAA-NH2; staple 4-11), the solubility kinetic in series [5] (pH 7, PBS) was 84.5 µM (≈ 143 µg/mL). The EPSA in series [1] came out at 211 A^2. Moreover, the logD in series [2] is 2.94. Further, the concentration giving a half-maximal response (EC50) in series [3] (LDH: Cytotoxicity assay: EC50) is over 50600 nM.

On to `CC(=O)N[C@@H](CCCCN=[N+]=[N-])C(=O)NCCC(=O)N[C@@H](C)C(=O)N[C@H](C(=O)N[C@@H](Cc1ccccc1)C(=O)N[C@]1(C)CCCCCCC=CCCC[C@@](C)(C(=O)N[C@@H](CO)C(=O)N[C@@H](C)C(=O)N[C@@H](C)C(N)=O)NC(=O)[C@H](CC2CCC2)NC(=O)[C@H](CCC(N)=O)NC(=O)[C@H](C)NC(=O)[C@H](Cc2c[nH]c3ccccc23)NC(=O)[C@H](Cc2ccc(O)cc2)NC(=O)[C@H](C)NC1=O)[C@@H](C)O` [MP-958, AZIDE-ATSP-7041 (L1A,E5A)] (Ac-[Lys(N3)][βAla]ATF[R8]AYWAQ[Cba][S5]SAA-NH2; staple 6-13), for which, in series [5] (pH 7, PBS), the solubility kinetic was 5 µM (≈ 9.35 µg/mL). The compound also gave an EPSA in series [6] of 207 A^2. For the same compound, the logD in series [2] turned out to be 3.13. The cell entry EC50 in series [7] came out at 333 nM. Besides, the half-maximal effective concentration (EC50) in series [3] (setting [8]) was over 50000 nM. Besides, the “LDH: Cytotoxicity assay % Effect” value stood at 13.33% in series [4] (0% FBS 4Hr) and 4.88% in series [4] (0% FBS 16Hr).

On to `CC(=O)N[C@@H](CCCCN=[N+]=[N-])C(=O)NCCC(=O)N[C@@H](C)C(=O)N[C@H](C(=O)N[C@@H](Cc1ccccc1)C(=O)N[C@]1(C)CCCCCCC=CCCC[C@@](C)(C(=O)N[C@@H](CO)C(=O)N[C@@H](C)C(=O)N[C@@H](C)C(N)=O)NC(=O)[C@H](CC2CCC2)NC(=O)[C@H](C)NC(=O)[C@H](C)NC(=O)[C@H](Cc2c[nH]c3ccccc23)NC(=O)[C@H](Cc2ccc(O)cc2)NC(=O)[C@H](CCC(=O)O)NC1=O)[C@@H](C)O` [MP-959, AZIDE-ATSP-7041 (L1A,Q9A)] (Ac-[Lys(N3)][βAla]ATF[R8]EYWAA[Cba][S5]SAA-NH2; staple 6-13), for which the solubility kinetic in series [5] (pH 7, PBS) worked out at 106 µM (≈ 197 µg/mL). Besides, in series [6], the EPSA turned out to be 218 A^2. In series [2], the logD came to 2.79. The cell entry EC50 in series [7] turned out to be 126 nM. The EC50 was 976 nM in series [3] (setting [8]) and 980 nM in series [3] (4 hours, 0% serum, read-out: LDH Cytotoxicity assay EC50). The “LDH: Cytotoxicity assay % Effect” value in series [4] (0% FBS 4Hr) was 12.11%; in series [4] (0% FBS 16Hr), 5.8%.

Regarding `CC(=O)N[C@@H](CCCCN=[N+]=[N-])C(=O)NCCC(=O)N[C@@H](C)C(=O)N[C@H](C(=O)N[C@@H](Cc1ccccc1)C(=O)N[C@]1(C)CCCCCCC=CCCC[C@@](C)(C(=O)N[C@@H](C)C(=O)N[C@@H](C)C(=O)N[C@@H](C)C(N)=O)NC(=O)[C@H](CC2CCC2)NC(=O)[C@H](CCC(N)=O)NC(=O)[C@H](C)NC(=O)[C@H](Cc2c[nH]c3ccccc23)NC(=O)[C@H](Cc2ccc(O)cc2)NC(=O)[C@H](CCC(=O)O)NC1=O)[C@@H](C)O` [MP-960, AZIDE-ATSP-7041 (L1A,S12A)] (Ac-[Lys(N3)][βAla]ATF[R8]EYWAQ[Cba][S5]AAA-NH2; staple 6-13), the solubility kinetic in series [5] (pH 7, PBS) is 102 µM (≈ 194 µg/mL). The compound further registered an EPSA in series [6] of 221 A^2. The same compound came in with a logD in series [2] of 2.76. In series [7], the cell entry EC50 was found to be 286 nM. In addition, the EC50 in series [3] (setting [8]) was over 50000 nM. Moreover, the “LDH: Cytotoxicity assay % Effect” value in series [4] (0% FBS 4Hr) is 17.36%.

For the compound `CC(=O)N[C@@H](CCCCN=[N+]=[N-])C(=O)NCCC(=O)N[C@@H](CC(C)C)C(=O)N[C@@H](C)C(=O)N[C@@H](Cc1ccccc1)C(=O)N[C@]1(C)CCCCCCC=CCCC[C@@](C)(C(=O)N[C@@H](CO)C(=O)N[C@@H](C)C(=O)N[C@@H](C)C(N)=O)NC(=O)[C@H](CC2CCC2)NC(=O)[C@H](CCC(N)=O)NC(=O)[C@H](C)NC(=O)[C@H](Cc2c[nH]c3ccccc23)NC(=O)[C@H](Cc2ccc(O)cc2)NC(=O)[C@H](C)NC1=O` [MP-961, AZIDE-ATSP-7041 (T2A,E5A)] (Ac-[Lys(N3)][βAla]LAF[R8]AYWAQ[Cba][S5]SAA-NH2; staple 6-13), the Solubility entry in series [5] is listed as “P.B”; in series [5] (pH 7, PBS), “Poorly Behaved”. For the same compound, the EPSA in series [6] was 206 A^2. The results for the “Partition Coeff LogD” value in series [2] and in series [2] (experimental) were “Poorly Behaved” and “P.B”, respectively. In series [7], the cell entry EC50 worked out at 272 nM. For the same compound, in series [3] (setting [8]), the half-maximal effective concentration (EC50) is over 50000 nM. Also, the “LDH: Cytotoxicity assay % Effect” value in series [4] (0% FBS 4Hr) was determined as 4.443%.

As for `CC(=O)N[C@@H](CCCCN=[N+]=[N-])C(=O)NCCC(=O)N[C@@H](CC(C)C)C(=O)N[C@@H](C)C(=O)N[C@@H](Cc1ccccc1)C(=O)N[C@]1(C)CCCCCCC=CCCC[C@@](C)(C(=O)N[C@@H](CO)C(=O)N[C@@H](C)C(=O)N[C@@H](C)C(N)=O)NC(=O)[C@H](CC2CCC2)NC(=O)[C@H](C)NC(=O)[C@H](C)NC(=O)[C@H](Cc2c[nH]c3ccccc23)NC(=O)[C@H](Cc2ccc(O)cc2)NC(=O)[C@H](CCC(=O)O)NC1=O` [MP-962, AZIDE-ATSP-7041 (T2A,Q9A)] (Ac-[Lys(N3)][βAla]LAF[R8]EYWAA[Cba][S5]SAA-NH2; staple 6-13), in series [5] (pH 7, PBS), the solubility kinetic is 77.5 µM (≈ 146 µg/mL). Also, the EPSA in series [6] came out at 216 A^2. This compound had a logD in series [2] of 2.96. Moreover, the cell entry EC50 in series [7] turned out to be 77.6 nM. Moreover, the EC50 in series [3] (setting [8]) is over 50000 nM. Besides, the “LDH: Cytotoxicity assay % Effect” value in series [4] (0% FBS 4Hr) is listed as 4.327%.

On to `CC(=O)N[C@@H](CCCCN=[N+]=[N-])C(=O)NCCC(=O)N[C@@H](CC(C)C)C(=O)N[C@@H](C)C(=O)N[C@@H](Cc1ccccc1)C(=O)N[C@]1(C)CCCCCCC=CCCC[C@@](C)(C(=O)N[C@@H](C)C(=O)N[C@@H](C)C(=O)N[C@@H](C)C(N)=O)NC(=O)[C@H](CC2CCC2)NC(=O)[C@H](CCC(N)=O)NC(=O)[C@H](C)NC(=O)[C@H](Cc2c[nH]c3ccccc23)NC(=O)[C@H](Cc2ccc(O)cc2)NC(=O)[C@H](CCC(=O)O)NC1=O` [MP-963, AZIDE-ATSP-7041 (T2A,S12A)] (Ac-[Lys(N3)][βAla]LAF[R8]EYWAQ[Cba][S5]AAA-NH2; staple 6-13), for which the solubility kinetic in series [5] (pH 7, PBS) was 100 µM (≈ 192 µg/mL). In addition, the EPSA in series [6] is 220 A^2. The compound also registered a logD in series [2] of 2.97. The cell entry EC50 in series [7] turned out to be 177 nM. In series [3] (setting [8]), the EC50 is over 50000 nM. Besides, the entries for the “LDH: Cytotoxicity assay % Effect” value in series [4] (0% FBS 4Hr) and in series [4] (0% FBS 16Hr) were 11.69% and -0.52%, respectively.

Take `CC(=O)N[C@@H](CCCCN=[N+]=[N-])C(=O)NCCC(=O)N[C@@H](CC(C)C)C(=O)N[C@H](C(=O)N[C@@H](Cc1ccccc1)C(=O)N[C@]1(C)CCCCCCC=CCCC[C@@](C)(C(=O)N[C@@H](C)C(=O)N[C@@H](C)C(=O)N[C@@H](C)C(N)=O)NC(=O)[C@H](CC2CCC2)NC(=O)[C@H](C)NC(=O)[C@H](C)NC(=O)[C@H](Cc2c[nH]c3ccccc23)NC(=O)[C@H](Cc2ccc(O)cc2)NC(=O)[C@H](CCC(=O)O)NC1=O)[C@@H](C)O` [MP-8966, AZIDE-ATSP-7041 (Q9A,S12A)] (Ac-[Lys(N3)][βAla]LTF[R8]EYWAA[Cba][S5]AAA-NH2; staple 6-13): the solubility kinetic in series [5] (pH 7, PBS) came to 111 µM (≈ 211 µg/mL). Also, in series [6], the EPSA amounted to 215 A^2. Besides, the logD in series [2] worked out at 2.92. For the same compound, in series [7], the cell entry EC50 was determined as 202 nM. Besides, the EC50 was over 50000 nM in series [3] (setting [8]) and over 50000 nM in series [3] (10% FBS 4Hr, read-out: LDH: Cytotoxicity assay EC50). For the same compound, the figures for the “LDH: Cytotoxicity assay % Effect” value in series [4] (0% FBS 4Hr) and in series [4] (10% FBS 4Hr) were 5.4% and 4.079%, respectively.
